Assay results from patent publication US4294757A, “20-O-Acylmaytansinoids” (Takeda Chemical Industries, Ltd, priority 1979, dated 1981).
In brackets after ≈: the same amount, converted by molar mass.

How the values were obtained:
Tetrahymena pyriformis W = experiment: Antiprotozoal activity against Tetrahymena pyriformis W, serial dilution method; type: cell-based; details: 28° C., 44 to 48 hours, pH 7.0
Description: Then, with Tetrahymena pyriformis W strain used as the test microorganism and a medium composed of 20 g tryptose peptone (Difco), lg yeast extract, 2 g glucose, 1000 ml distilled water and 10 ml of a 1 M phosphate buffer of pH 7.0 as the assay medium, the microorganism is incubated at 28° C. for 44 to 48 hours, and the growth inhibitory activity of said antibiotic compound is assayed by the serial dilution method.

[1] = test system: Hamigera avellanea IFO 7721; experiment: Antifungal activity against Hamigera avellanea IFO 7721, paper disc method; type: cell-based; details: IFO7721, paper disc 8 mm diameter, 0.02 ml of a 100 μg/ml solution, pH 7.0, read-out: Antifungal activity, φmm (zone of growth inhibition), Hamigera avellanea IFO 7721
Description: On the other hand, the antifungal activity of the test compound is assayed against Hamigera avellanea IFO 7721 by the paper disc method, employing agar plates [each containing the medium consisting of 3.5 g of disodium phosphate 0.5 g monopotassium phosphate, 5 g yeast extract (Difco), 10 g glucose, 15 g agar, 1000 ml distilled water, and adjusted to pH 7.0]. Thus, on the plates inoculated with the above microorganism, the zones of growth inhibition are determined using paper discs (supplied by Toyo Seisakusho, Japan, thin-type, 8 mm diameter) immersed with 0.02 ml of a 100 μg/ml solution of 20-O-acylmaytansinoid compound (I).

COC1/C=C/C=C(\C)Cc2cc(OC(C)=O)c(Cl)c(c2)N(C)C(=O)CC(OC(=O)C(C)C)C2(C)OC2C(C)C2CC1(O)NC(=O)O2 (stereo not drawn) [PDM-3 20-acetate]
MIC (Tetrahymena pyriformis W): 2 µg/mL (≈ 3.02 µM)
zone of inhibition at 100 µg/mL [1]: 31 mm

COC1/C=C/C=C(\C)Cc2cc(OC(=O)c3ccccc3)c(Cl)c(c2)N(C)C(=O)CC(OC(=O)C(C)C)C2(C)OC2C(C)C2CC1(O)NC(=O)O2 (stereo not drawn) [PDM-3 20-benzoate]
zone of inhibition at 100 µg/mL [1]: 35 mm

CCCC(=O)Oc1cc2cc(c1Cl)N(C)C(=O)CC(OC(=O)C(C)C)C1(C)OC1C(C)C1CC(O)(NC(=O)O1)C(OC)/C=C/C=C(\C)C2 (stereo not drawn) [PDM-3 20-butyrate]
zone of inhibition at 100 µg/mL [1]: 40 mm

C/C=C/C(=O)Oc1cc2cc(c1Cl)N(C)C(=O)CC(OC(=O)C(C)C)C1(C)OC1C(C)C1CC(O)(NC(=O)O1)C(OC)/C=C/C=C(\C)C2 (stereo not drawn) [PDM-3 20-crotonate]
zone of inhibition at 100 µg/mL [1]: 35 mm

COC1/C=C/C=C(\C)Cc2cc(OC(=O)C3CCCCC3)c(Cl)c(c2)N(C)C(=O)CC(OC(=O)C(C)C)C2(C)OC2C(C)C2CC1(O)NC(=O)O2 (stereo not drawn) [PDM-3 20-cyclohexylcarboxylate, PDM-3 20-cyclohexanecarboxylate]
zone of inhibition at 100 µg/mL [1]: 22 mm

COC1/C=C/C=C(\C)Cc2cc(OC(=O)C(C)C)c(Cl)c(c2)N(C)C(=O)CC(OC(=O)C(C)C)C2(C)OC2C(C)C2CC1(O)NC(=O)O2 (stereo not drawn) [PDM-3 20-i-butyrate, PDM-3 20-isobutyrate]
zone of inhibition at 100 µg/mL [1]: 40 mm

COC1/C=C/C=C(\C)Cc2cc(OC(=O)CC(C)C)c(Cl)c(c2)N(C)C(=O)CC(OC(=O)C(C)C)C2(C)OC2C(C)C2CC1(O)NC(=O)O2 (stereo not drawn) [PDM-3 20-i-valerate, PDM-3 20-isovalerate]
MIC (Tetrahymena pyriformis W): 2 µg/mL (≈ 2.84 µM)
zone of inhibition at 100 µg/mL [1]: 44 mm

COC1/C=C/C=C(\C)Cc2cc(OC(=O)c3ccccc3Br)c(Cl)c(c2)N(C)C(=O)CC(OC(=O)C(C)C)C2(C)OC2C(C)C2CC1(O)NC(=O)O2 (stereo not drawn) [PDM-3 20-o-bromobenzoate, PDM-3 20-ortho-bromobenzoate]
zone of inhibition at 100 µg/mL [1]: 27 mm

COC1/C=C/C=C(\C)Cc2cc(OC(=O)Cc3ccccc3)c(Cl)c(c2)N(C)C(=O)CC(OC(=O)C(C)C)C2(C)OC2C(C)C2CC1(O)NC(=O)O2 (stereo not drawn) [PDM-3 20-phenylacetate]
zone of inhibition at 100 µg/mL [1]: 31 mm

COC1/C=C/C=C(\C)Cc2cc(OC(=O)Nc3ccccc3)c(Cl)c(c2)N(C)C(=O)CC(OC(=O)C(C)C)C2(C)OC2C(C)C2CC1(O)NC(=O)O2 (stereo not drawn) [PDM-3 20-phenylcarbamate]
MIC (Tetrahymena pyriformis W): ≤ 1 µg/mL
zone of inhibition at 100 µg/mL [1]: 16.5 mm

COC1/C=C/C=C(\C)Cc2cc(OC(=O)c3ccccn3)c(Cl)c(c2)N(C)C(=O)CC(OC(=O)C(C)C)C2(C)OC2C(C)C2CC1(O)NC(=O)O2 (stereo not drawn) [PDM-3 20-picolinate]
MIC (Tetrahymena pyriformis W): 2 µg/mL (≈ 2.75 µM)
zone of inhibition at 100 µg/mL [1]: 21 mm

CCC(=O)Oc1cc2cc(c1Cl)N(C)C(=O)CC(OC(=O)C(C)C)C1(C)OC1C(C)C1CC(O)(NC(=O)O1)C(OC)/C=C/C=C(\C)C2 (stereo not drawn) [PDM-3 20-propionate]
MIC (Tetrahymena pyriformis W): 2 µg/mL (≈ 2.95 µM)
zone of inhibition at 100 µg/mL [1]: 34 mm

CCCCC(=O)Oc1cc2cc(c1Cl)N(C)C(=O)CC(OC(=O)C(C)C)C1(C)OC1C(C)C1CC(O)(NC(=O)O1)C(OC)/C=C/C=C(\C)C2 (stereo not drawn) [PDM-3 20-valerate]
zone of inhibition at 100 µg/mL [1]: 44 mm
